How the values were obtained:
[1] = tested on: recombinant NL4-3 virus (Renilla luciferase in nef) in MT-2 cells; test: whole plant or invertebrate; format: cell-based, HIV; conditions: Renilla, NL43, MT-2 cells infected for 4-5 days with recombinant NL4-3 Renilla luciferase virus; luciferase activity
Outline: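 MT-2 cells infected for 4-5 days with NL4-3 reporter virus (Renilla luciferase replacing part of nef, produced by transfection of 293T cells) in the presence of serial compound dilutions. Antiviral activity quantified by luciferase activity read with a live-cell substrate.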

[2] = Compound cytotoxicity, XTT-based colorimetric assay; format: cell-based; conditions: human, uninfected MT2 cells, day 4, XTT
Outline: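 Run under the antiviral-assay protocol but without virus. Viability was read on day 4 and CC50 values were derived from the readout.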

SMILES	EC50 [1] [µM]	CC50 at 4 days [2] [µM]
Cc1cc(N(C)C(=O)[C@H](Cc2cc(F)cc(F)c2)NC(=O)NS(=O)(=O)N[C@@H](Cc2cc(F)cc(F)c2)C(=O)N(C)c2cnc(C)c(C)c2)cnc1C [Example 235]	7	≥ 100
C=CCCN(C(=O)[C@H](Cc1cc(F)cc(F)c1)NS(=O)(=O)NC(=O)N[C@@H](Cc1cc(F)cc(F)c1)C(=O)N(CC=C)c1ccc(OC)cc1)c1ccc(OC)cc1 [Example 123]	0.38	19.2
COc1ccc(N(C)C(=O)[C@H](Cc2cc(F)cc(F)c2)NS(=O)(=O)CS(=O)(=O)N[C@@H](Cc2cc(F)cc(F)c2)C(=O)N(C)c2ccc(OC)cc2)cc1 [Example 201]	0.48	12.5
CN(C(=O)[C@H](Cc1ccccc1)NC(=O)c1ccc(F)c(C(=O)N[C@@H](Cc2ccccc2)C(=O)N(C)c2ccc3scnc3c2)c1)c1ccc2scnc2c1 [Example 169]	0.06	4.5
COc1ccc(N(C)C(=O)[C@H](Cc2ccccc2)NC(=O)c2cc(C)cc(C(=O)N[C@@H](Cc3ccccc3)C(=O)N(C)c3ccc(OC)cc3)c2)cc1 [Example 102]	0.05	≥ 33.3
COc1ccc(N(C)C(=O)[C@H](Cc2ccccc2)NC(=O)c2cc(Br)cc(C(=O)N[C@@H](Cc3ccccc3)C(=O)N(C)c3ccc(OC)cc3)c2)cc1 [Example 110]	0.21	≥ 100
COc1ccc(N(CCF)C(=O)[C@H](Cc2cc(F)cc(F)c2)NC(=O)CN2c3ccccc3N(CC(=O)N[C@@H](Cc3cc(F)cc(F)c3)C(=O)N(CCF)c3ccc(OC)cc3)S2(=O)=O)cc1 [Example 122]	0.09	≥ 100
COc1ccc(N(C)C(=O)[C@H](Cc2cc(F)cc(F)c2)NC(=O)c2ccc(F)c(C(=O)N[C@@H](Cc3cc(F)cc(F)c3)C(=O)N(C)c3ccc(OC)c(F)c3)c2)cc1F [Example 232]	0.18	≥ 33.3
COc1ccc(N(C)C(=O)[C@H](Cc2ccccc2)NC(=O)OCCOC(=O)N[C@@H](Cc2ccccc2)C(=O)N(C)c2ccc(OC)cc2)cc1 [Example 56]	2.6	10.5
CN(C(=O)[C@H](Cc1cc(F)cc(F)c1)NC(=O)NS(=O)(=O)N[C@@H](Cc1cc(F)cc(F)c1)C(=O)N(C)c1ccccc1)c1ccccc1 [Example 86]	0.09	24.5
CN(C(=O)[C@H](Cc1cc(F)cc(F)c1)NC(=O)c1ccc(F)c(C(=O)N[C@@H](Cc2cc(F)cc(F)c2)C(=O)N(C)c2ccc(C3CC3)cc2)c1)c1ccc(C2CC2)cc1 [Example 230]	0.02	≥ 100
COc1ccc(N(C)C(=O)[C@H](Cc2cc(F)cc(F)c2)NC(=O)NS(=O)(=O)N[C@@H](Cc2ccccc2)C(=O)N(C)c2ccc(OC)cc2)cc1 [Example 45]	0.01	38.8
CN(C(=O)[C@H](Cc1cc(F)cc(F)c1)NC(=O)NS(=O)(=O)N[C@@H](Cc1cc(F)cc(F)c1)C(=O)N(C)c1cnc2scnc2c1)c1cnc2scnc2c1 [Example 226]	8.92	≥ 100
COc1ccc(N(C)C(=O)[C@H](Cc2cc(F)cc(F)c2)NC(=O)CN2c3ccccc3N(CC(=O)N[C@@H](Cc3cc(F)cc(F)c3)C(=O)N(C)c3ccc(OC)c(F)c3)S2(=O)=O)cc1F [Example 231]	0.04	≥ 100
COc1ccc(N(C)C(=O)[C@H](Cc2ccccc2)NC(=O)c2cc(C(=O)O)cc(C(=O)N[C@@H](Cc3ccccc3)C(=O)N(C)c3ccc(OC)cc3)c2)cc1 [Example 55]	10.1	85.8
COc1ccc(N(C)C(=O)[C@H](Cc2ccccc2)NC(=O)CC(=O)N[C@@H](Cc2ccccc2)C(=O)N(C)c2ccc(OC)cc2)cc1 [Example 3]	1.94	70.9
COc1ccc(N(C)C(=O)[C@H](Cc2ccccc2)NC(=O)Cc2ccc(CC(=O)N[C@@H](Cc3ccccc3)C(=O)N(C)c3ccc(OC)cc3)cc2)cc1 [Example 47]	2.76	11.1
CN(C(=O)[C@H](Cc1cc(F)cc(F)c1)NC(=O)NS(=O)(=O)N[C@@H](Cc1cc(F)cc(F)c1)C(=O)N(C)c1ccc2sc(=O)n(C)c2c1)c1ccc2sc(=O)n(C)c2c1 [Example 237]	0.27	71.9
COc1ccc(N(C)C(=O)[C@H](Cc2ccccc2)NC(=O)CCCC(=O)N[C@@H](Cc2ccccc2)C(=O)N(C)c2ccc(OC)cc2)cc1 [Example 22]	1.31	21.1
COc1ccc(N(C)C(=O)[C@H](Cc2cc(F)cc(F)c2)NC(=O)COc2nc3ccccc3n(CC(=O)N[C@@H](Cc3cc(F)cc(F)c3)C(=O)N(C)c3ccc(OC)cc3)c2=O)cc1 [Example 96]	0.12	≥ 50
C=CCN(C(=O)[C@H](Cc1cc(F)cc(F)c1)NC(=O)NS(=O)(=O)N[C@@H](Cc1cc(F)cc(F)c1)C(=O)N(CC=C)c1ccc2scnc2c1)c1ccc2scnc2c1 [Example 140]	0.1	32.7

SMILES	EC50 [1] [µM]	CC50 at 4 days [2] [µM]
CN(C(=O)[C@H](Cc1cc(F)cc(F)c1)NC(=O)NS(=O)(=O)N[C@@H](Cc1cc(F)cc(F)c1)C(=O)N(C)c1ccc2snnc2c1)c1ccc2snnc2c1 [Example 177]	0.27	88
CCCN(C(=O)[C@H](Cc1cc(F)cc(F)c1)NC(=O)NS(=O)(=O)N[C@@H](Cc1cc(F)cc(F)c1)C(=O)N(CCC)c1ccc2nccnc2c1)c1ccc2nccnc2c1 [Example 204]	15	≥ 33.3
CCN(C(=O)[C@H](Cc1cc(F)cc(F)c1)NC(=O)NS(=O)(=O)N[C@@H](Cc1cc(F)cc(F)c1)C(=O)N(CC)c1ccc(OC(F)F)cc1)c1ccc(OC(F)F)cc1 [Example 150]	0.01	24.6
CCN(C(=O)[C@H](Cc1cc(F)cc(F)c1)NC(=O)CN1c2ccccc2N(CC(=O)N[C@@H](Cc2cc(F)cc(F)c2)C(=O)N(CC)c2ccc3oc(=O)n(Cc4ccccc4)c3c2)S1(=O)=O)c1ccc2oc(=O)n(Cc3ccccc3)c2c1 [Example 153]	1.54	3.1
COc1ccc(N(C)C(=O)[C@H](Cc2ccccc2)NC(=O)Cn2c(=O)n(CC(=O)N[C@@H](Cc3ccccc3)C(=O)N(C)c3ccc(OC)cc3)c3cc(OC)ccc32)cc1 [Example 83]	0.09	6.2
COc1ccc(N(C)C(=O)[C@H](Cc2ccccc2)NC(=O)NS(=O)(=O)N[C@@H](Cc2ccccc2)C(=O)N(C)c2cc(C)c(OC)cc2C)cc1 [Example 15]	4.22	35.3
CN(C(=O)[C@H](Cc1cc(F)cc(F)c1)NC(=O)Cn1c(=O)n(CC(=O)N[C@@H](Cc2cc(F)cc(F)c2)C(=O)N(C)c2ccc3scnc3c2)c2ccccc21)c1ccc2scnc2c1 [Example 119]	0.01	≥ 100
CN(C(=O)[C@H](Cc1cc(F)cc(F)c1)NC(=O)c1cncc(C(=O)N[C@@H](Cc2cc(F)cc(F)c2)C(=O)N(C)c2ccc3scnc3c2)c1)c1ccc2scnc2c1 [Example 129]	0.01	5.3
CN(C(=O)[C@H](Cc1cc(F)cc(F)c1)NC(=O)N[C@@H](Cc1cc(F)cc(F)c1)C(=O)N(C)c1ccc2scnc2c1)c1ccc2scnc2c1 [Example 221]	0.52	≥ 100
CN(C(=O)[C@H](Cc1cc(F)cc(F)c1)NC(=O)c1ccc(F)c(C(=O)N[C@@H](Cc2cc(F)cc(F)c2)C(=O)N(C)c2ccc3scnc3c2)c1)c1ccc2scnc2c1 [Example 126]	0.01	≥ 100
Cc1ncc(N(C)C(=O)[C@H](Cc2cc(F)cc(F)c2)NC(=O)NS(=O)(=O)N[C@@H](Cc2cc(F)cc(F)c2)C(=O)N(C)c2cnc(C)c(Cl)c2)cc1Cl [Example 225]	0.87	2.3
COc1ccc(N(C)C(=O)[C@H](Cc2ccccc2)NC(=O)NS(=O)(=O)N[C@@H](Cc2ccccc2)C(=O)N(C)c2ccc(OC)cc2C)cc1 [Example 16]	1.72	≥ 33.3
COc1ccc(N(C)C(=O)[C@H](Cc2ccccc2)NC(=O)CC(C)(C)CC(=O)N[C@@H](Cc2ccccc2)C(=O)N(C)c2ccc(OC)cc2)cc1 [Example 77]	3.98	9.6
CN(C(=O)[C@H](Cc1cc(F)cc(F)c1)NC(=O)c1cccc(C(=O)N[C@@H](Cc2cc(F)cc(F)c2)C(=O)N(C)c2ccc3scnc3c2)c1Cl)c1ccc2scnc2c1 [Example 82]	0.07	≥ 100
COc1ccc(N(C)C(=O)[C@H](Cc2ccccc2)NC(=O)Cn2c(=O)n(CC(=O)N[C@@H](Cc3ccccc3)C(=O)N(C)c3ccc(OC)cc3)c3cc(Cl)ccc32)cc1 [Example 71]	0.08	6.5
COc1ccc(N(C)C(=O)[C@H](Cc2ccccc2)NC(=O)Cn2c(=O)c(=O)n(CC(=O)N[C@@H](Cc3ccccc3)C(=O)N(C)c3ccc(OC)cc3)c3ccccc32)cc1 [Example 94]	0.16	23.2
Cc1cc(N(C)C(=O)[C@H](Cc2ccccc2)NC(=O)NS(=O)(=O)N[C@@H](Cc2ccccc2)C(=O)N(C)c2ccc(F)c(C)c2)ccc1F [Example 229]	2.64	64.7
COc1ccc(N(C)C(=O)[C@H](Cc2ccccc2)NC(=O)NC(=O)N[C@@H](Cc2ccccc2)C(=O)N(C)c2ccc(OC)cc2)cc1 [Example 10]	4.71	10.5
COc1ccc(N(C)C(=O)[C@H](Cc2ccccc2)NC(=O)Cn2c(=O)n(CC(=O)N[C@@H](Cc3ccccc3)C(=O)N(C)c3ccc(OC)cc3)c3cc([N+](=O)[O-])ccc32)cc1 [Example 87]	0.09	11.1
CN(C(=O)[C@H](Cc1cc(F)cc(F)c1)NC(=O)c1cccc(C(=O)N[C@@H](Cc2cc(F)cc(F)c2)C(=O)N(C)c2ccc3scnc3c2)c1)c1ccc2scnc2c1 [Example 51]	0.01	≥ 100

Reference: patent US20180072997A1, “INHIBITORS OF HUMAN IMMUNODEFICIENCY VIRUS REPLICATION” (ViiV HEATHCARE UK (NO.5) LIMITED, priority 2015, published 2018)
